The results in this text go back to patent publication US20110144125A1, “Anti-Arrhythmia Agents, Methods of Their Use, Methods of Their Identification and Kits Therefore” (THE UAB RESEARCH FOUNDATION, priority 2008, published 2011).

Several values for one entry are separate records, joined by “and”; a condition that tells them apart may be missing. Identical values can stand only once. Entries after “also recorded” stand apart in the source; their conditions may differ. Like-named read-outs stand apart in the source and are kept apart here.

This assay has as its system rat left atria. The experiment in a line: Spontaneous tachycardic activity (STA) in isolated rat left atria exposed to 2-APB under increased calcium load. Here is the method: Male Sprague-Dawley rats (325-400 g) were anesthetized with intra-peritoneal pentobarbital (0.1 g/kg). Their right and left atria were isolated, superfused at 30° C. in Krebs-Henseleit buffer, and nearly isometric forces of contraction were measured from these muscles (Wolkowicz et al., 2002). 2-APB was prepared as a 150 mM dimethyl sulfoxide stock.
Left atria (n=8 per group) were paced at 3 Hz and (i) titrated with 0 to 30 nM isoproterenol (Ahlquist, 1970) or (ii) exposed to 3 μM forskolin (Laurenza et al., 1980). Left atrial force and frequency of contraction, the time to peak tension and relaxation times were recorded after a 3-5 min exposure to forskolin or to any concentration of isoproterenol. The 3 Hz pacing stimulus was interrupted at the end of these protocols to measure SMEs.
Left atria (n=10 per group) were paced at 0.1 Hz and treated with (i) 20 μM 2-APB for 10 min, (ii) with 30 nM isoproterenol for 5 min followed by 20 μM 2-APB for 10 min, and (iii) with 3 μM forskolin for 5 min followed by 20 μM 2-APB for 10 min.
Left atrial contraction and relaxation times were recorded at these five times, the pacing stimulus was stopped and rates of SMA were recorded. To determine whether initial pacing rate affects left atrial response to 2-APB and isoproterenol, left atria (n=5-7 per group) were paced at 3 Hz and (i) remained untreated for 15 min, (ii) were treated with 20 μM 2-APB alone for 10 min, or (ii) were treated with 30 nM isoproterenol for 5 min followed by 20 μM 2-APB for 10 min. Atrial mechanical function was measured at these four times; the pacing stimulus then was stopped and rates of SMA were recorded.
Left atria (n=6 per group) were paced at 3 Hz, titrated with 0 to 300 nM (−)BayK 8644 ([…]-1,4-Dihydro-2,6-dimethyl-5-nitro-4-[2-(trifluormethyl)phenyl]-3-pyridinecarboxylic acid methyl ester; Franckowiak et al. 1985) or FPL-64176 ((2,5-Dimethyl-4-[2-(phenylmethyl)benzoyl]-111-pyrrole-3-carboxylic acid methyl ester; Zheng et al., 1991) and their mechanical function and rates of SMA were recorded after a 5 min exposure to any concentration of slow calcium channel activator.
Left atria (n=8 per group) were paced at 0.1 Hz, exposed to 300 nM BayK 8644 or FPL-64176 for 5 min followed by 20 μM 2-APB for 10 min. Atrial mechanical function was recorded at this time; the pacing stimulus then was stopped and rates of SMA were recorded.
To test whether ryanodine receptor calcium leak produces SMA, left atria (n=6 per group) were paced at 0.1 Hz, treated with 0 or 300 nM BayK 8644 for 5 min, and then exposed to 600 nM ryanodine (Sutko et al., 1997). Atrial mechanical function and rates of SMA were recorded 20 min after exposure to ryanodine.
Rates of SMA were measured 5 min later.
Left atria (n=7) were paced at 3 Hz, treated with 120 μM ouabain (Illanes and Marshall, 1964), and any change in mechanical function was recorded at a new steady state, ˜10 min later. These atria were exposed to 20 μM 2-APB and their mechanical function and rates of SMA were recorded 10 min later.
3 Hz-paced left atria (n=9 per group) were superfused (i) in Krebs-Henseleit alone or (ii) they were treated with 20 μM 2-APB for 10 min, (iii) with 300 nM BayK 8644 for 10 min and with 20 μM 2-APB for 10 min, or (iv) they were treated with 300 nM BayK 8644 and 20 μM 2-APB for 10 min, then with 70 μM zatebradine (3-[3-[[2-(3,4-Dimethoxyphenyl)ethyl]methylamino] propyl]-1,3,4,5-tetrahydro-7,8,-dimethoxy-2H-3-benzazepin-2-one hydrochloride) for 10 min (Baruscotti et al., 2005). Pacing was interrupted at these times and rates of SMA were recorded.

The mark [1] stands for this setting: 20 μM 2-APB plus 30 nM isoproterenol, 3 μM forskolin, 300 nM BayK 8644, 300 nM FPL-64176 or 120 μM ouabain, absence of pacing, 30° C.

Consider `NCCOB(c1ccccc1)c1ccccc1` [2-APB, 2-aminoethoxydiphenyl borate], for which the “rate of STA post-washing” value is on record as 0.7±0.4 contractions/min and the “rate of STA pre-washing” value stood at 224±12 contractions/min.

`COC(=O)C1=C(C)NC(C)=C([N+](=O)[O-])[C@H]1c1ccccc1C(F)(F)F` [BayK 8644, (45)-1,4-Dihydro-2,6-dimethyl-5-nitro-4-[2-(trifluormethyl)phenyl]-3-pyridinecarboxylic acid methyl ester]: the “rate of STA (SMA frequency) in presence of 2-APB and calcium loading agent” value (from here on “rate of STA … of 2-APB and calcium loading agent”) turned out to be 227±10 contractions/min.

As to `COC(=O)c1c(C)[nH]c(C)c1C(=O)c1ccccc1Cc1ccccc1` [FPL-64176, 2,5-Dimethyl-4-[2-(phenylmethyl)benzoyl]-111-pyrrole-3-carboxylic acid methyl ester], the “rate of STA … of 2-APB and calcium loading agent” value was determined as 222±9 contractions/min.

Consider `CC(C)NCC(O)c1ccc(O)c(O)c1` (stereo not shown) [isoproterenol], for which the “rate of STA … of 2-APB and calcium loading agent” value under setting [1] was ~230 contractions/min and 239±11 contractions/min and 225±3.6 contractions/min.

Take `C[C@@H]1O[C@@H](O[C@H]2C[C@@H](O)[C@]3(CO)[C@H]4[C@H](O)C[C@]5(C)[C@@H](C6=CC(=O)OC6)CC[C@]5(O)[C@@H]4CC[C@]3(O)C2)[C@H](O)[C@H](O)[C@H]1O` [ouabain]: the “rate of STA … of 2-APB and calcium loading agent” value under setting [1] was 202±5.6 contractions/min.

For the compound ryanodine, under “BayK 8644 and 2-APB, then 600 nM ryanodine”, the “STA after depletion of ryanodine-sensitive calcium stores” value is listed as “persists; also recorded: does not terminate STA”.
